One may read the EC50 as the concentration needed to bring the measured effect to its halfway point. As a reminder, the IC50 is the concentration that gives 50% inhibition. As a reminder, the CC50 is the concentration giving 50% cytotoxicity.

Active and inactive are the calls of the source.

The results in this text go back to ChEMBL document CHEMBL1201862, “PubChem BioAssay data set” (2004).

In test [1] the target is T1, Aryl hydrocarbon receptor (Homo sapiens, UniProt P35869).
T1 sequence (P35869 whole entry): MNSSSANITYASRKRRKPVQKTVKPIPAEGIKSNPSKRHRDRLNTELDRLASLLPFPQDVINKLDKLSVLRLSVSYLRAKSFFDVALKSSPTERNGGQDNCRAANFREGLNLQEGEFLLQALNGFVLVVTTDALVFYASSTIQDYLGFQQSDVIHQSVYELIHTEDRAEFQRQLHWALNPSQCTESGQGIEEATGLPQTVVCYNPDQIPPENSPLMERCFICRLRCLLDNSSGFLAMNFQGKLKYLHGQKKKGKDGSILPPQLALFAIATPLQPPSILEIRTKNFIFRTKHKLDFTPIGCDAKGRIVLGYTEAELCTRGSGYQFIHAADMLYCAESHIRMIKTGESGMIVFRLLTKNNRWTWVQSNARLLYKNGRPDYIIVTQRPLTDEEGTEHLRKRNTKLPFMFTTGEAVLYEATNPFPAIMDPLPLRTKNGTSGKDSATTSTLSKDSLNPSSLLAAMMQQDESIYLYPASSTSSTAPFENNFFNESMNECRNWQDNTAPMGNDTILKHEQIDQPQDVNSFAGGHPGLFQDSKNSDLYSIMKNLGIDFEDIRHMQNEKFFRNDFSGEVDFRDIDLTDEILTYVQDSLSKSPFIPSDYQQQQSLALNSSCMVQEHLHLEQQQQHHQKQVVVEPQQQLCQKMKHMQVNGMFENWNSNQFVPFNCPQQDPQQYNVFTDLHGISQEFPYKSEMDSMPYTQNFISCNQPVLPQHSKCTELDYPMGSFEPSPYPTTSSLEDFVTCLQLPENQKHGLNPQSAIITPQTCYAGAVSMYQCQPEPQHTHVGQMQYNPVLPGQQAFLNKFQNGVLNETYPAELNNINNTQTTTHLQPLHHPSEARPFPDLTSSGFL
In words: Luminescence-based cell-based high throughput dose response assay for activators of the Aryl Hydrocarbon Receptor (AHR). [Related pubchem assays: 2796 (Primary screen (AHR activators in singlicate)), 2845 (Confirmation screen (AHR activators in triplicate)), 434939 (Counterscreen (PXR activators in triplicate)), 2804 (Summary (AHR activators))]. The test is classed as ADME. (In general: A counterscreen serves to expose hits that act by an unwanted route or on another target.)

Test [2] deals with Protein-tyrosine kinase 2-beta (Homo sapiens, UniProt Q14289).
The target of test [3] is Peroxisome proliferator-activated receptor gamma/Nuclear receptor coactivator 2 (Homo sapiens, UniProt P37231). The test is classed as functional.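 Also: agonist potency for raising coactivator recruitment to the receptor.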
Test [4] deals with Peroxisome proliferator-activated receptor gamma/Nuclear receptor coactivator 3 (Homo sapiens, UniProt P37231). The test is classed as functional.
For test [5], the target named is Peroxisome proliferator-activated receptor gamma/Nuclear receptor coactivator 1 (Homo sapiens, UniProt P37231). The test is classed as functional.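 Also: agonist potency as compounds enhance coactivator SRC-1 recruitment to PPARgamma.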
For test [6], the target named is T2, Estrogen receptor beta (Homo sapiens, UniProt Q92731). Kind of test: ERβ–SRC-3 coactivator interaction inhibitors, confirmation, orthogonal assay, biochemical, ELISA, streptavidin-HRP readout (AID 1060).
In test [7] the target is T3, Estrogen receptor (Homo sapiens, UniProt P03372).
T3 sequence (P03372 whole entry): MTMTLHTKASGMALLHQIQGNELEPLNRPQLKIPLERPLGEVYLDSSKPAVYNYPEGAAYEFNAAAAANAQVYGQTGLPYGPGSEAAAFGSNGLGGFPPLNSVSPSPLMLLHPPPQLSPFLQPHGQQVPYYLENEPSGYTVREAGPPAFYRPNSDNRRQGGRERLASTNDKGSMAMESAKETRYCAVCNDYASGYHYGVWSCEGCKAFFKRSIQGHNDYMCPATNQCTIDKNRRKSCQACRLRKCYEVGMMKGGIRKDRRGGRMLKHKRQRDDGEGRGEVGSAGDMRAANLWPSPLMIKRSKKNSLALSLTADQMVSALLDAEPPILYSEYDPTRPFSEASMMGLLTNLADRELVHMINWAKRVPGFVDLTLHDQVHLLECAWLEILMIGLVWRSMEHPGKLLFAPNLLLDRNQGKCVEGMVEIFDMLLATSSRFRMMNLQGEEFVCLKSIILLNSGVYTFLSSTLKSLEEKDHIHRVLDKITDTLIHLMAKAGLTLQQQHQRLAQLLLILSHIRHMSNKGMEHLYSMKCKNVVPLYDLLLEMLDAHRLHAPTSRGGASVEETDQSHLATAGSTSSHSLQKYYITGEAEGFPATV

For test [8], the target named is T2, Estrogen receptor beta.
Test [9] deals with Vero. In words: cells. The test is classed as functional. The note with it: Chlorocebus sabaeus.
Test [10] has as its target Lysosomal acid glucosylceramidase (Homo sapiens, UniProt P04062). Kind of test: Dose response cell-based high throughput screening assay to identify enhancers of beta-glucosidase activity. [Related pubchem assays: 784 ]. The test is classed as functional.
Test [11] has as its system Streptococcus sp. 'group A'. In words: growth inhibition of control SK(-) GAS strain, dose response, counter-screen for streptokinase expression inhibitor project, luminescence, kanamycin, BacTiterGlo, confirmation (AID 1900). The test is classed as functional, organism-based.
A short description of test [12]: inhibitors of intracellular T. cruzi replication, confirmation, NIH3T3 host cells, beta-gal luminescence (AID 2044).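 Also: intracellular parasites grown in NIH/3T3 mouse fibroblasts as host cells; luminescent beta-galactosidase reporter signal from transgenic T. cruzi replicating inside host cells; inhibitors lower the luminescence signal.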 The test is classed as functional, cell-based.
Test [13] is described as follows: growth suppression of PTEN-null colon cells, dose response, cell-based, HCT116 PTEN knockout (AID 1047).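 Also: HCT116 colon tumor cells with PTEN knocked out; cells exposed to compound for 60 hours before readout; potency for loss of cell viability measured by luminescence.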 The test is classed as functional.
The nature of test [14]: growth suppression of beta-catenin-knockout colon cells, dose response, cell-based, HCT116, human colon tumor (AID 1045).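 Also: HCT116 colon tumor cells with beta catenin knocked out; cells exposed to compound for 60 hours.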 The test is classed as functional.
The test system of test [15] is Streptococcus. In words: Group A Streptococcus viability loss, dose response, counter-screen for streptokinase expression inhibitor project, luminescence, BacTiterGlo (AID 1915).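 Also: potency for reduction of bacterial viability or growth.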 The test is classed as functional, organism-based.
The target of test [16] is T4, Streptokinase A (Streptococcus pyogenes serotype M1, UniProt P10520).
T4 sequence (P10520 whole entry): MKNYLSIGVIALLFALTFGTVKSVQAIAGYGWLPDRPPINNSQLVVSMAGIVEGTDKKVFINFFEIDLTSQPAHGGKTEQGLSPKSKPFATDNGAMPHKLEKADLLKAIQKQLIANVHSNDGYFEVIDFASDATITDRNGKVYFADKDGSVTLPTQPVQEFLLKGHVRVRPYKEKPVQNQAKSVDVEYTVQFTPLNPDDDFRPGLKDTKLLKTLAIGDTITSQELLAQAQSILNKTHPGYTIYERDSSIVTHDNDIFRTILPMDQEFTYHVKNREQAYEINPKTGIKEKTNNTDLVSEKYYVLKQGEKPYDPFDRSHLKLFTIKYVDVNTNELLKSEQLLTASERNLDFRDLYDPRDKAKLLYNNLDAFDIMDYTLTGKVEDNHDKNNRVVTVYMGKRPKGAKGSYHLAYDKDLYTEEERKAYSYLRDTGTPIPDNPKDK
Kind of test: S. pyogenes streptokinase expression inhibitors, potency, dose response, plasminogen activation absorbance, OD405 (AID 1914).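 Also: secreted streptokinase activity via plasminogen activation per viability signal from cell pellet.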 The test is classed as functional, Streptococcus pyogenes M1 GAS.

Test [17] can be described thus: cytotoxicity toward NIH3T3 fibroblasts, dose response, counter-screen, cell-based, ATP luminescence, mouse fibroblasts (AID 2010).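 Also: cells exposed to compound for about 90 hours before reading.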 The test is classed as functional.
Test [18] addresses T5, Mannose-6-phosphate isomerase (Homo sapiens, UniProt P34949).
T5 sequence (P34949 whole entry): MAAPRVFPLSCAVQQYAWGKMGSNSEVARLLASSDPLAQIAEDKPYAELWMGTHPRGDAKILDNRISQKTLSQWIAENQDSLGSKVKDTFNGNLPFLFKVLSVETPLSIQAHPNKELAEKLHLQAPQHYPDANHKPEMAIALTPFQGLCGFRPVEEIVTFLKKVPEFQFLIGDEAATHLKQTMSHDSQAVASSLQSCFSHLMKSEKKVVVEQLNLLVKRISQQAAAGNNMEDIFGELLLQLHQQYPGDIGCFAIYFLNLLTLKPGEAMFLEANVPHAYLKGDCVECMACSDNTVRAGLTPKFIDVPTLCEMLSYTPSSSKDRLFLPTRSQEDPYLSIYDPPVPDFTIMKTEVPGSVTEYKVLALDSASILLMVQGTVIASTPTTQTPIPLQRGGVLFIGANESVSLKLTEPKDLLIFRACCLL
In words: human PMI inhibitors, high substrate, primary screen, biochemical, fluorescence intensity, high mannose 6-phosphate (AID 1220).

Test [19] deals with DNA dC->dU-editing enzyme APOBEC-3A (Homo sapiens, UniProt P31941). In words: APOBEC3A DNA deaminase inhibitors, dose response, biochemical (AID 504722). The test is classed as functional.
Test [20] deals with DNA dC->dU-editing enzyme APOBEC-3G (Homo sapiens, UniProt Q9HC16). In words: Dose Response confirmation of small molecule APOBEC3G DNA Deaminase Inhibitors via a fluorescence-based single-stranded DNA deaminase assay. [Related pubchem assays (depositor defined):AID493012, AID493028]. The test is classed as functional.
Test [21] addresses T5, Mannose-6-phosphate isomerase. In words: inhibitors of human PMI, primary screen, biochemical, fluorescence intensity, coupled assay (AID 1209).
The target of test [22] is T6, Bcl-2-like protein 10 (Homo sapiens, UniProt Q9HD36).
T6 sequence (Q9HD36 whole entry): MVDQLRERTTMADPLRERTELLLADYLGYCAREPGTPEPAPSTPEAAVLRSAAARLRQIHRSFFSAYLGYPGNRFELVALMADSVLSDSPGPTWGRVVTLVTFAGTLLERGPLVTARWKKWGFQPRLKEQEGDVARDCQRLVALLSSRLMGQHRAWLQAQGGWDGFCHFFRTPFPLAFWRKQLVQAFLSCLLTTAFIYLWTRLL
In words: displacers of TR3 peptide from Bcl-B, primary screen, selectivity assay for Bfl-1 inhibitor project, biochemical, fluorescence polarization, FITC-TR3 peptide (AID 748).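 Also: fluorescence polarization from a fluorescein-labelled TR3 peptide binding purified Bcl-B.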 Background: In fluorescence polarisation assays a small probe gives low polarisation when free and higher when bound to something large.

Test [23] deals with 72 kDa type IV collagenase (Homo sapiens, UniProt P08253). In words: Dose Response validation of uHTS RPN11 inhibitor hits using a MMP-2 Fluorescence assay. The test is classed as functional.
Test [24] addresses 26S proteasome non-ATPase regulatory subunit 14 (Homo sapiens, UniProt O00487). Kind of test: inhibition of proteasome subunit RPN11 – biochemical, fluorescence polarization, uHTS hits, confirmation (AID 602368). The test is classed as functional.
Test [25] has as its target Prothrombin (Bos taurus, UniProt P00735). Kind of test: thrombin inhibition, dose response, biochemical, fluorescence polarization, uHTS hits (AID 602369). The test is classed as functional.
In test [26] the test system is H9c2. Kind of test: cells. The test is classed as functional, cell-based. The note with it: Rattus norvegicus, H9c2, Myocardium.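 Also: confirmatory concentration-response retest of ultra-high-throughput screening hits for modulation of myocardial damage; cell death induced by hydrogen peroxide oxidative stress; compound pretreatment for 60 min then peroxide exposure for 2 h; potency is for protecting the cells against peroxide damage rather than for killing them.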
In test [27] the target is E3 ubiquitin-protein ligase Mdm2 (Homo sapiens, UniProt Q00987). In words: enhancers of MDM2-luciferase reporter signal, concentration-effect titration, project on inhibitors of MDM2 ubiquitin ligase, cellular assay, luminescent readout, 384-well plate format (AID 1394).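 Also: MDM2 E3 inhibitors raise luminescence so EC50 is for signal enhancement.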 The test is classed as functional.

T2 sequence (Q92731 whole entry): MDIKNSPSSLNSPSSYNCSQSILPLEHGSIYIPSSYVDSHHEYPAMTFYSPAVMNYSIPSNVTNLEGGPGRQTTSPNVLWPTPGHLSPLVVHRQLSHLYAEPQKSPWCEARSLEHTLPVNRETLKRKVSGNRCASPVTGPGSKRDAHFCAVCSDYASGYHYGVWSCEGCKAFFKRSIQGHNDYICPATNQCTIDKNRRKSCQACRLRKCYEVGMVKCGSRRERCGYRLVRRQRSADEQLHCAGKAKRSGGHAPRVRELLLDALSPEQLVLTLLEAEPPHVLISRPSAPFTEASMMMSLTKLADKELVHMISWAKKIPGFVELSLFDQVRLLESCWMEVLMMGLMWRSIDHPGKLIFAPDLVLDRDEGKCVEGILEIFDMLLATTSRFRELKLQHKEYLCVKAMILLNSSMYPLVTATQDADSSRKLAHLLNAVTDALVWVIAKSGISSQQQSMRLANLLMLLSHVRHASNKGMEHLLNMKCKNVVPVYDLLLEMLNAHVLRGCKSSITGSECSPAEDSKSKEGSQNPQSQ
Sequence of Peroxisome proliferator-activated receptor gamma/Nuclear receptor coactivator 1 (P37231 whole entry): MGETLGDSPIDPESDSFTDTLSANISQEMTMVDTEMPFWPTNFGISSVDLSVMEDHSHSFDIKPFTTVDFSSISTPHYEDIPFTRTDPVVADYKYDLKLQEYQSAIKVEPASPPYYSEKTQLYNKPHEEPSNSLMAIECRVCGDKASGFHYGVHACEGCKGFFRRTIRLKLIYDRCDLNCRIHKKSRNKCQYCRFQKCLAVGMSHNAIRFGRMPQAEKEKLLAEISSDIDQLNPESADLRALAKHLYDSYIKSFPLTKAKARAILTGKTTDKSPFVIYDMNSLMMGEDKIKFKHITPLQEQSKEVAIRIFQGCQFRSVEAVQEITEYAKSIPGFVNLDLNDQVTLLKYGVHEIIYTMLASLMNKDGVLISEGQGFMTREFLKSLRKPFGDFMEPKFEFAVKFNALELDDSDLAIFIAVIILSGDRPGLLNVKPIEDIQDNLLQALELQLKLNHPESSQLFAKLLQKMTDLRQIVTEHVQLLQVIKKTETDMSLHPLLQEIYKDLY
Sequence of Peroxisome proliferator-activated receptor gamma/Nuclear receptor coactivator 1 (Q15788 whole entry, further chain): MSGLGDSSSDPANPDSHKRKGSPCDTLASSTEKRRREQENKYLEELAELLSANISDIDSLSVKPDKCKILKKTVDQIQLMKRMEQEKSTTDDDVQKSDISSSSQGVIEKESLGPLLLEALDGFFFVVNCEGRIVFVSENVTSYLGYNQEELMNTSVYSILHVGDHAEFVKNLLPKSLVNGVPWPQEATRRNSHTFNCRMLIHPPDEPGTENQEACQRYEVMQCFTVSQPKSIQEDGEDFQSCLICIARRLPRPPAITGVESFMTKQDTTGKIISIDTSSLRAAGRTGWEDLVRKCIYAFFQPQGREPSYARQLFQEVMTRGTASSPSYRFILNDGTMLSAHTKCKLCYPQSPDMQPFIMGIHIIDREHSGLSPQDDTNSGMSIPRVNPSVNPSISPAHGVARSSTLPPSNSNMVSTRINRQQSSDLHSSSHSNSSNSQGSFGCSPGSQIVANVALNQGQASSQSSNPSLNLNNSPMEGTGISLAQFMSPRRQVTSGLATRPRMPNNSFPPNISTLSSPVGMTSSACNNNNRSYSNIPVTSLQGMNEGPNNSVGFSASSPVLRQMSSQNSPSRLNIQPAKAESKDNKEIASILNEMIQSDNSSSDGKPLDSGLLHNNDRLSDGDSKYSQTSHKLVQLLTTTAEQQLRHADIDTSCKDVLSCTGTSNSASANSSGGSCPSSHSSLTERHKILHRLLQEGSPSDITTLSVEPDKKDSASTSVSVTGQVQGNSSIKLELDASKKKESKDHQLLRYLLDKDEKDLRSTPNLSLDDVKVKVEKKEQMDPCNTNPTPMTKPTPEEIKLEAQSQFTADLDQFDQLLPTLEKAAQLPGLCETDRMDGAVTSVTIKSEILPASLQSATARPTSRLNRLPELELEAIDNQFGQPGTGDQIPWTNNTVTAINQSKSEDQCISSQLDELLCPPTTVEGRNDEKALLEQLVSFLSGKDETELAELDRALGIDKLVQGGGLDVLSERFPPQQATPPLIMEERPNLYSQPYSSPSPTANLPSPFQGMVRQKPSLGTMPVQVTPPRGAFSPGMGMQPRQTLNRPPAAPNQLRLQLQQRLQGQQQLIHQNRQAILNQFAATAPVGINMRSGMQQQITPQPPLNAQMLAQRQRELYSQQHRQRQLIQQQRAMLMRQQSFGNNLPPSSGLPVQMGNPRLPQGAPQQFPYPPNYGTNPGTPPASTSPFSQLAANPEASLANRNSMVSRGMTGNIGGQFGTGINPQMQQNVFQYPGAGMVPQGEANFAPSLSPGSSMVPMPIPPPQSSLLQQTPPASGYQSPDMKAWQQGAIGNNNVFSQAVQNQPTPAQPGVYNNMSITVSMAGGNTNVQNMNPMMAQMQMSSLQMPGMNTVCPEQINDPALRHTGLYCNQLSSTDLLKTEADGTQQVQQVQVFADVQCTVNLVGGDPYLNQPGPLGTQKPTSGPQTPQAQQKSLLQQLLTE
Sequence of Peroxisome proliferator-activated receptor gamma/Nuclear receptor coactivator 2 (P37231 whole entry): as the sequence (P37231 whole entry) above
Sequence of Peroxisome proliferator-activated receptor gamma/Nuclear receptor coactivator 2 (Q15596 whole entry, further chain): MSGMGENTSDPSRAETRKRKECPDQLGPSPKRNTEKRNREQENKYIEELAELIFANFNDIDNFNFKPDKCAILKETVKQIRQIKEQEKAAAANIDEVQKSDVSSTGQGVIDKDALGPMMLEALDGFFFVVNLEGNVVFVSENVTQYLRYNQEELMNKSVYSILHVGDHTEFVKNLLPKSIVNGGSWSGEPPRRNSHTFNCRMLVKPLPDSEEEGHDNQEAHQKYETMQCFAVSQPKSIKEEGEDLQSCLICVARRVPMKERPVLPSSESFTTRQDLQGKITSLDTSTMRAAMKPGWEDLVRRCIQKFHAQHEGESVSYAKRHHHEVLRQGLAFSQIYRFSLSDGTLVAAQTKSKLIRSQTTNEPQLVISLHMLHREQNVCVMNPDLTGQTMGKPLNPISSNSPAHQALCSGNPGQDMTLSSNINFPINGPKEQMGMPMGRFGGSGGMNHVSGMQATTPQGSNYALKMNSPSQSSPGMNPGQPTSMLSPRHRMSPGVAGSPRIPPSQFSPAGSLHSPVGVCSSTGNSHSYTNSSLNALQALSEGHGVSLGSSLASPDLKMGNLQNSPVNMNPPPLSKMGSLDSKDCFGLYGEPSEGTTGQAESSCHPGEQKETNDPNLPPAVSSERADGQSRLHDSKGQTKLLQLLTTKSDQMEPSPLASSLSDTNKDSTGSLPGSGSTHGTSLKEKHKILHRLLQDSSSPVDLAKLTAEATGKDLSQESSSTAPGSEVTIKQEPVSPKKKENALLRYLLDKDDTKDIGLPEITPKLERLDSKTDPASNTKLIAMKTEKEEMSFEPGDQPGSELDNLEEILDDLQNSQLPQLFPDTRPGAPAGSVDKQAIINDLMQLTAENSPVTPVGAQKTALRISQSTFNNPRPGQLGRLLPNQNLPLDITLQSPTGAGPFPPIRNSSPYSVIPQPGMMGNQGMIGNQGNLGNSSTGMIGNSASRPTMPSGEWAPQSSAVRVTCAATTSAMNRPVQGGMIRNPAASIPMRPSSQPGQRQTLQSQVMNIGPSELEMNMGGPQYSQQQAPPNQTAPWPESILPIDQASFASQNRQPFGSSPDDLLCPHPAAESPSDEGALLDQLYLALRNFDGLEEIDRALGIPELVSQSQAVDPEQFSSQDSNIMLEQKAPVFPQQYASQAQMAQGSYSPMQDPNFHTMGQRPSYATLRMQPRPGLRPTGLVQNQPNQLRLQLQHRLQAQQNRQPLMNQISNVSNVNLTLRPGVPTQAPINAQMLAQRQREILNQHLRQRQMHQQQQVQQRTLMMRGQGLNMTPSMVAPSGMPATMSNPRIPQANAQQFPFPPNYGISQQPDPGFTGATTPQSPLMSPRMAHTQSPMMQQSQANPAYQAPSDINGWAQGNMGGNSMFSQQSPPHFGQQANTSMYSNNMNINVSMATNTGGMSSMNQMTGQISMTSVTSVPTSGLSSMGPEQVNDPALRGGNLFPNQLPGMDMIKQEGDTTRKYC
Sequence of DNA dC->dU-editing enzyme APOBEC-3G (Q9HC16 whole entry): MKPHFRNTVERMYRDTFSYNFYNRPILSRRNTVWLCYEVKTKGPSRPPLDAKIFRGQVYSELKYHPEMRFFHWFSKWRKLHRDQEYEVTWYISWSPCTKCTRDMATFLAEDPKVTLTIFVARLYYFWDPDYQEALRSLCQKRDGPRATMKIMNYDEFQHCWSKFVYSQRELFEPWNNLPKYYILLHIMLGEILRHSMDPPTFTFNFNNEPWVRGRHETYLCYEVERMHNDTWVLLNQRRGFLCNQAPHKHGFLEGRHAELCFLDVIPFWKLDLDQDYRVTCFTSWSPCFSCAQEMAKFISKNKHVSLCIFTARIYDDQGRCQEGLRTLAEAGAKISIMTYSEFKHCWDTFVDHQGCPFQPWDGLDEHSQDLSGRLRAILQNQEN
Sequence of DNA dC->dU-editing enzyme APOBEC-3A (P31941 whole entry): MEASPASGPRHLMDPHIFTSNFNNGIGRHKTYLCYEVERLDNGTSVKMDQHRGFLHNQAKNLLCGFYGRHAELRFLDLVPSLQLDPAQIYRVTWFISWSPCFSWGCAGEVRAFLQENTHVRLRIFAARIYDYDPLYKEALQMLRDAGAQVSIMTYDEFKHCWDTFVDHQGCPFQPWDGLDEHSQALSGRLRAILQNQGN

Regarding `Cc1cnc(NC(=O)c2c(Cl)cnn2C)s1`, the EC50 in test [1] is 5.87 µM (active).
For `C=CCn1c(SCC(=O)N2CCCC2)nc2scc(-c3cccs3)c2c1=O`, the IC50 in test [2] is given as > 69.5 µM (not active).
On to `CC1CCN(S(=O)(=O)c2ccc(C(=O)Nc3sccc3C(N)=O)cc2)CC1`, for which the values for the EC50 in test [3], in test [4] and in [5] were 145 µM (not active), 79.2 µM (not active) and 71.2 µM (not active), respectively.
In the case of `CCC1(C)NC(=O)N(CC(=O)Nc2sc3c(c2C(N)=O)CCC3)C1=O` (stereo not drawn), the figures for the half-maximal inhibitory concentration (IC50) in [6] and in [7] were 0.0325 µM (not active) and 18.2 µM (active), respectively.
In the case of `Cc1ccc(S(=O)(=O)Cc2ccc(C(=O)N3CCC4(CC3)OCCO4)o2)cc1`, the IC50 in [7] is 43 µM (not active); in test [8] it was 12.8 µM (active).
For the compound `COc1ccccc1C(=O)Nc1ccccn1`, the EC50 in [3], in [4] and in [5] was > 79.4 µM (not active) each time.
For the compound `CC(C)Cn1c(N)c(C(=O)NCc2cccs2)c2nc3ccccc3nc21`, the CC50 in test [9] was 14 µM (active). In addition, the EC50 in test [10] is 2.49 µM (active); in [11], 3.56 µM (active); in test [12], 2.17 µM (active); in test [13], 36 µM (active); in [14], 47 µM (active); in test [15] it was 7.88 µM (active). The EC50 in [16] was 30.2 µM (active); in [17] it was > 60 µM (not active).
Turning to `CC1(C)Cc2c(sc3ncn4c(S)nnc4c23)CO1`, the 50% inhibitory concentration (IC50) in test [18] is > 50 µM (not active); in [19], > 100 µM (inactive); in test [20], 3.8 µM (active); in [21], > 50 µM (not active).
On to `COc1ccc(C(N)CCc2ccc(C)o2)cc1` (stereo not drawn), for which the IC50 is 93.7 µM (not active) in test [6], 6.8 µM (active) in [8] and > 50 µM (inactive) in test [22].
For `COc1cccc(/C=N/NC(=O)c2[nH]c(C)c(C(=O)N/N=C/c3cccc(OC)c3)c2C)c1`, the IC50 in test [23] was > 100 µM (inactive); in test [24], 1.41 µM (active); in test [25], > 100 µM (inactive); in [26] it was 10.6 µM (active). Also, in test [27], the EC50 was 6.15 µM (not active).
